Data published in EPA's ToxRefDB 2.

Experiments:
[1] = system: mouse; conditions: Carcinogenicity, cd1, Oral, Water, dose end: 104 week, group: systemic
[2] = system: rat; conditions: Prenatal developmental toxicity study, other, Oral, Gavage/Intubation, dose end: 15 GD
[3] = system: rat; conditions: Multigenerational reproductive toxicity study, other, Oral, Gavage/Intubation, dose end: 2 generation
[4] = system: dog; conditions: Chronic toxicity, beagle, Oral, Gavage/Intubation, dose end: 52 week, group: systemic
[5] = system: rabbit; conditions: Prenatal developmental toxicity study, new zealand white, Oral, Gavage/Intubation, dose end: 19 GD
[6] = system: rat; conditions: Chronic toxicity, other, Oral, Gavage/Intubation, dose end: 91 week, group: systemic
[7] = system: rabbit; conditions: Prenatal developmental toxicity study, new zealand white, Oral, Gavage/Intubation, dose end: 18 GD
[8] = system: mouse; conditions: Carcinogenicity, cd1, Oral, Feed, dose end: 98 week, group: systemic
[9] = system: rat; conditions: Sub-acute repeat dose toxicity, sprague dawley, Oral, Feed, dose end: 28 day, group: systemic
[10] = system: dog; conditions: Subchronic oral toxicity in nonrodent, beagle, Feed, dose end: 13 week, group: systemic, systemic / in life observation / body weight / body weight gain + systemic / in life observation / food consumption / food consumption
[11] = system: rat; conditions: Prenatal developmental toxicity study, other, Oral, Gavage/Intubation, dose end: 15 GD; remark: listed apart in the source
[12] = system: rat; conditions: Subchronic oral toxicity in rodents, other, Feed, dose end: 13 week, group: systemic, systemic / in life observation / body weight / body weight gain + systemic / pathology microscopic / liver / infiltration cellular + …
[13] = systemic / in life observation / body weight / body weight gain
[14] = systemic / in life observation / mortality / mortality + systemic / pathology microscopic / kidney / degeneration + systemic / pathology …
[15] = group: developmental, developmental / developmental malformation / bone / bipartite ossification + developmental / developmental malformation / bone / thickened…
[16] = group: maternal, systemic / in life observation / body weight / body weight gain
[17] = group: offspring, developmental / offspring survival late / viability index / viability index + systemic / in life observation / body weight / offspring (pup…
[18] = group: parental, systemic / in life observation / body weight / body weight + systemic / in life observation / body weight / body weight gain + systemic / in…
[19] = systemic / clinical chemistry / cholesterol / cholesterol + systemic / hematology / mean corpuscular (cell) volume (mcv) / mean corpuscular…
[20] = systemic / hematology / mean corpuscular hemoglobin (mch) / mean corpuscular hemoglobin (mch)
[21] = group: developmental, developmental / developmental malformation / brain / [other] + developmental / developmental malformation / general / crown-rump length + …
[22] = group: maternal, systemic / organ weight / uterus / nos
[23] = systemic / clinical chemistry / glucose / glucose
[24] = group: developmental, developmental / developmental malformation / brain / misshapen cerebrum + developmental / developmental malformation / eye / malpositioned…
[25] = systemic / pathology microscopic / liver / adenoma + systemic / pathology microscopic / liver / adenoma/carcinoma combined
[26] = systemic / clinical chemistry / lactic acid dehydrogenase (ldh) / lactic acid dehydrogenase (ldh) + systemic / clinical chemistry / sorbitol…
[27] = group: developmental, developmental / developmental malformation / bone / unossified + developmental / developmental malformation / bone / full supernumerary + …
[28] = group: maternal, systemic / in life observation / body weight / body weight gain + systemic / in life observation / body weight / body weight + systemic / in…

Structure (SMILES): N#CN [Cyanamide]
- LEL [1, 13]: 5 mg/kg/day
- NEL [1, 13]: < 5 mg/kg/day
- LOAEL [1, 14]: 16.9 mg/kg/day
- NOAEL [1, 14]: 6.9 mg/kg/day
- LEL [2, 15]: 90 mg/kg/day
- LOAEL [2, 15]: 90 mg/kg/day
- NEL [2, 15]: 30 mg/kg/day
- NOAEL [2, 15]: 30 mg/kg/day
- LEL [2, 16]: 10 mg/kg/day
- LOAEL [2, 16]: 10 mg/kg/day
- NEL [2, 16]: < 10 mg/kg/day
- NOAEL [2, 16]: < 10 mg/kg/day
- LEL [3, 17]: 1.25 mg/kg/day
- LOAEL [3, 17]: 1.25 mg/kg/day
- NEL [3, 17]: < 1.25 mg/kg/day
- NOAEL [3, 17]: < 1.25 mg/kg/day
- LEL [3, 18]: 3.75 mg/kg/day
- LOAEL [3, 18]: 3.75 mg/kg/day
- NEL [3, 18]: 1.25 mg/kg/day
- NOAEL [3, 18]: 1.25 mg/kg/day
- LOAEL [4, 19]: 2 mg/kg/day
- NOAEL [4, 19]: 0.4 mg/kg/day
- LEL [4, 20]: 0.4 mg/kg/day
- NEL [4, 20]: < 0.4 mg/kg/day
- LOAEL [5, 21]: 36 mg/kg/day
- NEL [5, 21]: 4 mg/kg/day
- NOAEL [5, 21]: 12 mg/kg/day
- LEL ([5]; group: developmental, developmental / developmental malformation / eye / retina fold): 12 mg/kg/day
- LOAEL [5, 16]: 12 mg/kg/day
- LEL [5, 22]: 4 mg/kg/day
- NEL [5, 22]: < 4 mg/kg/day
- NOAEL ([5]; group: maternal, systemic / organ weight / uterus / nos + systemic / in life observation / body weight / body weight gain + reproductive / reproductive …): 4 mg/kg/day
- LEL [6, 23]: 1 mg/kg/day
- NEL [6, 23]: < 1 mg/kg/day
- LOAEL ([6]; systemic / in life observation / body weight / body weight gain + systemic / pathology microscopic / thyroid gland / colloid content): 7.5 mg/kg/day
- NOAEL ([6]; systemic / in life observation / body weight / body weight gain + systemic / pathology microscopic / thyroid gland / colloid content + …): 2.5 mg/kg/day

Structure (SMILES): CC(Oc1cccc(Cl)c1)C(=O)O (stereo not drawn) [Cloprop]
- LEL [7, 24]: 200 mg/kg/day
- LOAEL [7, 24]: 200 mg/kg/day
- NEL [7, 24]: 100 mg/kg/day
- NOAEL [7, 24]: 100 mg/kg/day
- LEL [7, 16]: 200 mg/kg/day
- LOAEL [7, 16]: 200 mg/kg/day
- NEL [7, 16]: 100 mg/kg/day
- NOAEL [7, 16]: 100 mg/kg/day
- LEL [8, 25]: 98 mg/kg/day
- NEL [8, 25]: < 98 mg/kg/day
- LOAEL ([8]; systemic / pathology microscopic / liver / hypertrophy): 402 mg/kg/day
- NOAEL ([8]; systemic / pathology microscopic / liver / hypertrophy + systemic / pathology microscopic / liver / adenoma + systemic / pathology …): 98 mg/kg/day

Structure (SMILES): ClC(Cl)(Cl)c1ccccc1 [Benzotrichloride]
- LOAEL [9, 26]: > 25 mg/kg/day
- NEL [9, 26]: 0.025 mg/kg/day
- NOAEL [9, 26]: ≥ 25 mg/kg/day
- LEL ([9]; systemic / clinical chemistry / sorbitol dehydrogenase / sorbitol dehydrogenase): 0.25 mg/kg/day

Structure (SMILES): O=C(O)COc1ccc(Cl)cc1 [4-Chlorophenoxyacetic acid]
- LEL [10]: 17.4 mg/kg/day
- LOAEL [10]: 17.4 mg/kg/day
- NEL [10]: 4.05 mg/kg/day
- NOAEL [10]: 4.05 mg/kg/day
- LOAEL ([11]; group: developmental, developmental / developmental malformation / bone / unossified): 300 mg/kg/day
- LEL ([11]; group: developmental, developmental / developmental malformation / bone / unossified + developmental / developmental malformation / bone / full supernumerary): 300 mg/kg/day
- NEL [11, 27]: 150 mg/kg/day
- NOAEL [11, 27]: 150 mg/kg/day
- LEL [11, 16]: 300 mg/kg/day
- LOAEL [11, 16]: 300 mg/kg/day
- NEL [11, 28]: 150 mg/kg/day
- NOAEL [11, 28]: 150 mg/kg/day
- LEL [12]: 517 mg/kg/day
- LOAEL [12]: 517 mg/kg/day
- NEL [12]: 132 mg/kg/day
- NOAEL [12]: 132 mg/kg/day
